Experimental data: patent US6140336A, “Spiro[2H-1-benzopyran-2,4'-piperidine]-4(3H)-one derivatives, acid addition salts thereof and pharmaceutical compositions containing them” (Richter Gedeon Vegyeszeti Gyar Rt., priority 1996, dated 2000)
Where a name gives a salt, the structure may show the parent alone. Read-outs that look alike come from different tables or passages of the source.

Columns and labels:
[1] = Stability of hydrogen maleate salt versus free base; assay type: physicochemical
[2] = assay type: in vivo, rats; details: for ED50: i.v.
Method: These experiments were carried out on rats (with a body weight of 180-200 g) anaesthetized by urethane (1.25 g/kg i.p.) in such a way that 50 μg/kg of aconitine [chemically acetyl benzoyl aconine] was injected to the tail vein then, the arrhythmic disturbances were observed on ERG II lead after 5 minutes [J. Med. Exp. 10, 93 (1964)].
The compounds to be tested for antiarrhythmic effect were intravenously (i.v.) administered 2 minutes, or orally one hour before aconitine.
The aconitine arrhythmia was evaluated in such a manner that the severity of arrhythmia was characterized by an increasing number and, after average calculation both in the control as well as in the tested group, the average of treated group was expressed as percentage of the control. The arrhythmia was characterized by the following scores: […]

[3] = Diazepam (DIA) induced anterograde amnesia, passive avoidance test; assay type: in vivo, NMRI mice; details: for inhibition in vivo at 0.1 mg/kg / inhibition in vivo at 10 mg/kg: Mus musculus, po, 1 h, read-out: Prevention %; for significantly antagonized the amnesic effect of diazepam (percentage): Table 1, p.o.; for antiamnesic effect (overall): overall conclusion from the amnesia tests; for protection against the amnesic effect of diazepam, lower versus higher dose: 0.1 mg/kg and 10 mg/kg p.o.
Text: (§1) The biological activity of the compounds of formulas (I) and (Ia) was studied by using passive avoidance test. This test is one of the most widely used animal experimental model for investigating the effects of substances on the cognitive functions (learning and memory processes). This is based on inhibition of the genetically determined behavior of rodents (mice and rats) that they prefer dark space to light one. A single electric shock given in the dark box is employed as a memory trace, the retention and retrieval of which can be controlled after a shorter or longer period.
The passive avoidance test was carried out on NMRI mice with a body weight of 25-28 g. During the learning, preselected animals (mice entering into a dark space from an illuminated space within 30 s) were placed into an illuminated space. After entering into the dark space, the animal received within 30 s onto his paw an electric shock (1 mA for 3 s) causing an unpleasant sensation. The time of entry into the dark space (latency period) was measured. During the check, after 24 hours, the animals were again put back to the illuminated space and the time elapsed until entry into the dark space (retention time) was measured (limit time=300 s). The animals were intraperitoneally (i.p.) treated with 3 mg/kg of diazepam (chemically, 7-chloro-1,3-dihydro-1-methyl-5-phenyl-2H-1,4-benzodiazepin-2-one) 30 minutes before learning in order to induce anterograde amnesia. The compounds were orally (p.o.) administered in doses of 0.1 or 10 mg/kg, respectively one hour before the learning. The protective effect was calculated percentage value (P%) by using the following formula: [formula]
(§2) In the above formula, T means the measured retention time of animals treated as shown in the index or the measured retention time of untreated animals, respectively.

[4] = Electroshock (ECS) induced retrograde amnesia, passive avoidance test; assay type: in vivo, NMRI mice; details: for Prevention %: 2 hours after learning
Text: as §1
In this test, the retrograde amnesia was induced on NMRI mice having a body weight of 24-26 g by using an auricular electroshock treatment of 20 mA for 0.2 s at one hour following the learning. The compounds to be tested were administered 2 hours after learning. The protective effect was calculated as percentage value (p%D) by using the following formula: [formula]
P%=Ttreated+ECS -Tplacebo+ECS /Tplacebo -Tplacebo+ECS
as §2

[5] = test system: neuronal calcium uptake (veratrine-induced); assay: Veratrine-induced 45Ca uptake by synaptosome preparation; assay type: biochemical
Method: (§3) Compound 4610351 has been investigated in detail both under in vitro and in vivo conditions. This compound evened 36% protection in an oral dose of 10 mg/kg in the normobaric hypoxia-induced memory deficiency model on rats; this surpassed the protective effect of 21% provided by 10 mg/kg oral dose of vinpocetine. […] On the basis of these investigations, compounds of formulas (I) and (Ia) can be utilized for the treatment of diseases and dementias accompanied by the impairment of cognitive processes (learning, memory), such as multiinfarct and Alzeimer type dementias, states following stroke, ischaemic injuries, sequels of trauma of the central nervous system, parkinsonism, Huntington's chorea or multiple sclerosis. The therapeutical doses of compounds of formulas (I) and (Ia) can range between 0.1 and 40 mg/kg of body weight given orally, daily once or several times.

[6] = Normobaric hypoxia-induced memory deficiency model on rats; assay type: in vivo; details: 10 mg/kg oral
Method: as §3

[7] = test system: neuronal calcium uptake (K^+ -induced); assay: K+ -induced 45Ca uptake by synaptosome preparation; assay type: biochemical
Method: as §3

[8] = 30 mg/kg p.o., one hour before aconitine
[9] = 0.1 mg/kg p.o., one hour before learning, diazepam 3 mg/kg i.p., * = p < 0.05 vs diazepam control
[10] = 10 mg/kg p.o., one hour before learning, diazepam 3 mg/kg i.p., * = p < 0.05 vs diazepam control
[11] = 10 mg/kg p.o., * marks significance

Row | Structure (SMILES) | Inhibition (%) ([2]; 10 mg/kg i.v.) | Inhibition (%) ([2]; 30 mg/kg i.v.) | Inhibition (%) [2, 8] [%] | inhibition in vivo at 0.1 mg/kg [3, 9] [%] | inhibition in vivo at 10 mg/kg [3, 10] [%] | significantly antagonized the amnesic effect of diazepam (percentage) [3] | antiamnesic effect (overall) [3] | also measured
1 | O=C1CC2(CCN(Cc3ccccc3)CC2)Oc2ccccc21 |  |  |  |  |  |  |  | stability over the free base form [1]: higher stability
2 | CCCCc1oc2ccccc2c1C(=O)c1cc(I)c(OCCN(CC)CC)c(I)c1 [Amiodarone] | 70 |  |  |  |  |  |  | Inhibition (%) ([2]; 3.0 mg/kg i.v.): 13%; Inhibition (%) ([2]; 5.0 mg/kg i.v.): 29%; ED50 [2]: 7.04 mg/kg
3 | CCN1C[C@H]2CN(C)C[C@@H](C1)C2OC(=O)c1ccc(Cl)cc1 (stereo partly drawn) [Bisaramil, 3-methyl-7-ethyl-9α-(4-chlorobenzoyloxy)-3,7-diazabicyclo[3.3.1]nonane hydrochloride] |  |  |  |  |  |  |  | Inhibition (%) ([2]; 0.3 mg/kg i.v.): 20%; Inhibition (%) ([2]; 0.5 mg/kg i.v.): 48%; Inhibition (%) ([2]; 1.0 mg/kg i.v.): 91%; ED50 [2]: 0.49 mg/kg
4 | O=C1CC2(CCN(Cc3ccccc3)CC2)Oc2ccccc21 [Compound 4600592, 1'-Benzylspiro[2H-1-benzopyran-2,4'-piperidine]-4(3H)-one] | 3 | 19 | 0 | 144 | 92 | 105-176% |  | Prevention % ([4]; 1 mg/kg p.o.): 48%; Prevention % [4, 11]: 44%; protection in ECS-induced retrograde amnesia ([4]; mouse, in vivo): No considerable protection
5 | O=C1CC2(CCN(Cc3ccc(F)cc3)CC2)Oc2ccccc21 [Compound 4610282] |  |  |  | 131 | 24 | 105-176% | significant antiamnesic effect | protection in ECS-induced retrograde amnesia ([4]; 0.1 mg/kg (as printed in text)): 77%; Prevention % ([4]; 1 mg/kg p.o.): 77%; Prevention % [4, 11]: 29%
6 | O=C1CC2(CCN(Cc3ccc([N+](=O)[O-])cc3)CC2)Oc2ccccc21 [Compound 4610350] |  |  |  | 170 | 29 | 105-176% | significant antiamnesic effect | antiamnesic action in lower doses ([3]; 0.1 mg/kg p.o.): showed an antiamnesic action; antiamnesic action in higher doses ([3]; 10 mg/kg p.o.): inactive; Prevention % ([4]; 1 mg/kg p.o.): 0%; Prevention % [4, 11]: 8%
7 | O=C1CC2(CCN(Cc3ccc(Cl)cc3)CC2)Oc2ccccc21 [Compound 4610351] | 16 | 16 | 5 | 78 | 176 | 105-176% | significant antiamnesic effect | IC50 [5]: 4.5 µM; protection, normobaric hypoxia-induced memory deficiency [6]: 36%; IC50 [7]: 45.6 µM; Prevention % ([4]; 1 mg/kg p.o.): 81%; Prevention % [4, 11]: 108%; reversal of ECS-caused amnesia ([4]; both doses): could significantly reverse the ECS-caused amnesia in both doses; reversal of ECS-caused amnesia ([4]; higher dose): 108%
8 | O=C1CC2(CCN(Cc3ccc(Br)cc3)CC2)Oc2ccccc21 [Compound 4611109] |  |  |  | 92 | 0 |  |  | antiamnesic action in lower doses ([3]; 0.1 mg/kg p.o.): showed an antiamnesic action; antiamnesic action in higher doses ([3]; 10 mg/kg p.o.): inactive
9 | O=C1CC2(CC[N+](Cc3ccc([N+](=O)[O-])cc3)(Cc3ccc([N+](=O)[O-])cc3)CC2)Oc2ccccc21 [Compound 4611265] | 21 | 10 | 0 |  |  | 105-176% | significant antiamnesic effect | protection against the amnesic effect of diazepam, lower versus higher dose [3]: nearly the same protection; inhibition in vivo at 0.1 mg/kg [3]: 86%; inhibition in vivo at 10 mg/kg [3]: 134%
10 | CC(C)(C)c1ccc(CN2CCC3(CC2)CC(=O)c2ccccc2O3)cc1 [Compound 4611266, 1'-(4-tert-butylbenzyl)-spiro[2H-1-benzopyran-2,4'-piperidine]-4(3H)-one] | 21 | 3 | 0 | 159 | 105 | 105-176% | significant antiamnesic effect | protection against the amnesic effect of diazepam, lower versus higher dose [3]: nearly the same protection
11 | O=C1CC2(CC[N+](Cc3ccccc3)(Cc3ccccc3)CC2)Oc2ccccc21 [Compound 4611267, 1',1'-dibenzyl-spiro[2H-4(3H)-oxo-1-benzopyran-2,4'-piperidinium]hydrochloride] | 0 | 29 | 0 | 47 | 67 |  |  | 
12 | Cc1cccc(C)c1OCC(C)N (stereo not shown) [Mexiletine, 1-methyl-2-(2,6-xylyloxy)ethylamine] | 62 |  |  |  |  |  |  | Inhibition (%) ([2]; 1.0 mg/kg i.v.): 29%; Inhibition (%) ([2]; 3.0 mg/kg i.v.): 68%; ED50 [2]: 2.51 mg/kg
13 | C=C[C@H]1C[N@@]2CC[C@H]1C[C@@H]2[C@@H](O)c1ccnc2ccc(OC)cc12 [Quinidine, (S)-(6-methoxy-4-quinolinyl)-[(2R.4S.5R)-5-vinyl-2-quinuclidinyl]methanol] | 55 | 83 |  |  |  |  |  | Inhibition (%) ([2]; 0.3 mg/kg i.v.): 34%; ED50 [2]: 6.66 mg/kg
14 | NC(=O)[C@@H]1CCCN1C(=O)[C@H](Cc1c[nH]cn1)NC(=O)[C@@H]1CCC(=O)N1 [TRH, 5-oxo-L-prolyl-L-histidyl-L-proline amide, reference compound] |  |  |  |  |  |  |  | Prevention % ([4]; 1 mg/kg i.p.): 77%; Prevention % ([4]; 10 mg/kg i.p.): 35%
15 | CCOC(=O)C1=C[C@]2(CC)CCCN3CCc4c(n1c1ccccc41)[C@@H]32 [Vinpocetine, ethyl apovincaminate, reference compound] |  |  |  | 0 | 123 |  |  | protection, normobaric hypoxia-induced memory deficiency [6]: 21%
